In one series the test system is TDO2. More on the design: method as in PMID 27096472, PMID 28105265, PMID 26348881, PMID 22616902. The note with it: cited from earlier work; for IC50: test library, read-out: IC50 (TDO2 active compounds of the test library).
The subject of series [1] is IDO1/TDO2 (SKOV3 and BT549 cell lines). Briefly: Single-concentration test of virtual hits for inhibition of kynurenine secretion in SKOV3 and BT549. It counts as cell-based, human. The note with it: 20 µM. The procedure: (§1) Breast cancer cell lines MCF7, MDA-MB-231, BT549, Hs578T; ovarian cell line SKOV3; glioblastoma cell line A172 and lung cancer cell line H460 were grown in α-MEMGibco, Grand Island, NY, USA; ThermoFisher catalogue number 12000022) containing 5% foetal calf serum (Moregate Biotech, Hamilton, New Zealand), insulin/transferrin/selenium supplement (Roche, Ref-11074547001), added according to the manufacturer’s instructions, as well as penicillin/streptomycin (100 U/mL and 100 μg/mL, respectively). The amount of kynurenine produced by the cells was measured as described previously. Briefly, a well of a 96-well plate received 3.7 × 10^4 cells which were subsequently cultured with the addition of 50 μM (BT474 and SKOV3 cells) or 100 μM (A172 cells) of L-tryptophan (Sigma-Aldrich, St Louis, MO, USA) with or without test compounds at 37 °C, 5% CO2 for 18 h. The cell number seeded was optimised to produce levels of kynurenine <40% of initial tryptophan to avoid tryptophan starvation and to ensure steady-state IDO1/TDO2 kinetics. […] After spinning the plates for 20 min at 2500 g, the supernatants were mixed at a 1:1 ratio with 4-(dimethylamino)benzaldehyde (20 mg/mL in acetic acid; Sigma) and the absorbance was read at 480 nm on an EnSpire 2300 Multimode Plate Reader (Perkin-Elmer, Singapore, Singapore). […] After 1 h of incubation at 37 °C, the absorbance was measured at 440 nm. WST-1 is reduced on the outer membrane of viable cells to a soluble formazan by reducing equivalents such as NAD(P)H. The absorbance measured at 440 nm indicates the number of metabolically active cells in the culture and represents a surrogate marker of cell viability.
All experiments were repeated independently at least twice in technical quadruplicates. […] IC50 of the compounds in cellular enzymatic activity compared to untreated control cells was determined by fitting data to an equation f(x) = A + B/(1 + (IC50/X)^HILL) in Prism; where A is the minimum and B is the maximum of the curve, HILL is the slope of the curve and X is the compound concentration.

The next series concerns the target T1, IDO1 (SKOV3 cells) (Homo sapiens, UniProt P14902).
T1 construct: identify cell lines endogenously expressing only IDO1, only TDO2, and both enzymes simultaneously; endogenous in cells; host or cells: SKOV3 ovarian cancer cell line
Briefly: Cell based kynurenine assay in SKOV3 ovarian line (IDO1 expressor). The note with it: for IC50: SKOV3 (IDO1), 18 h, read-out: IC50, inhibition of kynurenine secretion. The procedure: Breast cancer cell lines MCF7, MDA-MB-231, BT549, Hs578T; ovarian cell line SKOV3; glioblastoma cell line A172 and lung cancer cell line H460 were grown in α-MEMGibco, Grand Island, NY, USA; ThermoFisher catalogue number 12000022) containing 5% foetal calf serum (Moregate Biotech, Hamilton, New Zealand), insulin/transferrin/selenium supplement (Roche, Ref-11074547001), added according to the manufacturer’s instructions, as well as penicillin/streptomycin (100 U/mL and 100 μg/mL, respectively). The amount of kynurenine produced by the cells was measured as described previously. Briefly, a well of a 96-well plate received 3.7 × 10^4 cells which were subsequently cultured with the addition of 50 μM ([…] and SKOV3 cells) or 100 μM (A172 cells) of L-tryptophan (Sigma-Aldrich, St Louis, MO, USA) with or without test compounds at 37 °C, 5% CO2 for 18 h. The cell number seeded was optimised to produce levels of kynurenine <40% of initial tryptophan to avoid tryptophan starvation and to ensure steady-state IDO1/TDO2 kinetics. Next, the culture supernatants were transferred into a fresh 96-well plate, incubated with trichloroacetic acid (10% final concentration) for 20 min at 60 °C […] and precipitate proteins. After spinning the plates for 20 min at 2500 g, the supernatants were mixed at a 1:1 ratio with 4-(dimethylamino)benzaldehyde (20 mg/mL in acetic acid; Sigma) and the absorbance was read at 480 nm on an EnSpire 2300 Multimode Plate Reader (Perkin-Elmer, Singapore, Singapore). The remaining cells in the 96-well plate received a well-established indicator of cellular metabolic activity WST-1 (Roche Diagnostics Cat No 05015944, Basel, Switzerland; 10% diluted in culture media). After 1 h of incubation at 37 °C, the absorbance was measured at 440 nm. WST-1 is reduced on the outer membrane of viable cells to a soluble formazan by reducing equivalents such as NAD(P)H. The absorbance measured at 440 nm indicates the number of metabolically active cells in the culture and represents a surrogate marker of cell viability.
All experiments were repeated independently at least twice in technical quadruplicates. Calculations and graph plotting were performed in Prism (v8, 2018; GraphPad software, San Diego, CA, USA) and R computing environment (v3.5.3, 2019, 64-bit, Vienna, Austria). IC50 of the compounds in cellular enzymatic activity compared to untreated control cells was determined by fitting data to an equation f(x) = A + B/(1 + (IC50/X)^HILL) in Prism; where A is the minimum and B is the maximum of the curve, HILL is the slope of the curve and X is the compound concentration.

A further series has as its system IDO1/TDO2 (BT549 cells). Briefly: Cell based kynurenine assay in BT549 breast line (dual IDO1/TDO2 expressor). Details: species or system human. Here is the method:
as §1, with “previously.” for “previously. Briefly, a well of a 96-well plate received 3.7 × 10^4 cells which were subsequently cultured with the addition of 50 μM (BT474 and SKOV3 cells) or 100 μM (A172 cells) of L-tryptophan (Sigma-Aldrich, St Louis, MO, USA) with or without test compounds at 37 °C, 5% CO2 for 18 h. The cell number seeded was optimised to produce levels of kynurenine <40% of initial tryptophan to avoid tryptophan starvation and to ensure steady-state IDO1/TDO2 kinetics.”, “viability. […]” for “viability.”

For a further series, the target named is T2, TDO2 (A172 cells) (Homo sapiens, UniProt P48775).
T2 construct: identify cell lines endogenously expressing only IDO1, only TDO2, and both enzymes simultaneously; endogenous in cells; host or cells: A172 glioblastoma cell line
Briefly: Cell based kynurenine assay in A172 glioblastoma line (TDO2 expressor). The note with it: 18 h, read-out: IC50, inhibition of kynurenine secretion. Here is the method:
as §1, with “previously.” for “previously. Briefly, a well of a 96-well plate received 3.7 × 10^4 cells which were subsequently cultured with the addition of 50 μM (BT474 and SKOV3 cells) or 100 μM (A172 cells) of L-tryptophan (Sigma-Aldrich, St Louis, MO, USA) with or without test compounds at 37 °C, 5% CO2 for 18 h. The cell number seeded was optimised to produce levels of kynurenine <40% of initial tryptophan to avoid tryptophan starvation and to ensure steady-state IDO1/TDO2 kinetics.”, “viability. […]” for “viability.”

The subject of series [2] is BT549 and SKOV3 cell lines. Briefly: WST-1 assay of cellular metabolic activity / cell viability. The format is cell-based, human. The note with it: 20 µM; asterisks in Figure 6A. Here is the method:
as §1, with “previously.” for “previously. Briefly, a well of a 96-well plate received 3.7 × 10^4 cells which were subsequently cultured with the addition of 50 μM (BT474 and SKOV3 cells) or 100 μM (A172 cells) of L-tryptophan (Sigma-Aldrich, St Louis, MO, USA) with or without test compounds at 37 °C, 5% CO2 for 18 h. The cell number seeded was optimised to produce levels of kynurenine <40% of initial tryptophan to avoid tryptophan starvation and to ensure steady-state IDO1/TDO2 kinetics.”

Several values for one entry are separate records, joined by “and”; a condition that tells them apart may be missing. Equal entries are not always repeated.

T1 sequence (P14902 whole entry): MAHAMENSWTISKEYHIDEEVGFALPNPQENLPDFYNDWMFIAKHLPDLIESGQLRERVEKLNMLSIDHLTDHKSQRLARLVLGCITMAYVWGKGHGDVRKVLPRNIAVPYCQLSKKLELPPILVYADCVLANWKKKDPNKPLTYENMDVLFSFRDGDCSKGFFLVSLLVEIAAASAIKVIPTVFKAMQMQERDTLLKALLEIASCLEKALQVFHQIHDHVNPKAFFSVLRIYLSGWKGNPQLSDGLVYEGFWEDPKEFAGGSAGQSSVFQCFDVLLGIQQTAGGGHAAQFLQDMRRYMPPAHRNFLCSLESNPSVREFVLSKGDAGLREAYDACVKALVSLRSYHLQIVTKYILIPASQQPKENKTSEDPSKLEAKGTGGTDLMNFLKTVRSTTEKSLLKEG
T2 sequence (P48775 whole entry): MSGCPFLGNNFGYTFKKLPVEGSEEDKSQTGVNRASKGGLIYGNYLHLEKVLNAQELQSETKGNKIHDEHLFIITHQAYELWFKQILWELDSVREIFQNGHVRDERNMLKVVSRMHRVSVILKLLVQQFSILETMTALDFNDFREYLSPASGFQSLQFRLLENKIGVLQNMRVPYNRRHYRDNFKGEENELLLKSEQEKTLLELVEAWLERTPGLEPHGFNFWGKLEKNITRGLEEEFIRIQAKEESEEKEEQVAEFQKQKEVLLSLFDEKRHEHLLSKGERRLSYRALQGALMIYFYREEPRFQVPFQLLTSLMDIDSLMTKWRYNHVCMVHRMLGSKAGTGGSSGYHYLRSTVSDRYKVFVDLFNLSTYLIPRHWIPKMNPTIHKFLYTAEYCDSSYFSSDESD

As a reminder, the IC50 is the concentration at which inhibition is half-maximal. As to `CC1c2cc(-c3c[nH]c4cc(F)ccc34)ccc2S(=O)(=O)N1CC(N)=O` (centres unmarked) [1a], in the series with TDO2, the IC50 is 26 nM. In the case of `O=C(CC1(O)C(=O)Nc2c(Cl)cc(Cl)cc21)c1ccc(Cl)cc1` (centres unmarked) [2e], the “Activity class in the TDO2 test library” value with TDO2 was “inactive”. Take `Brc1cccc(-c2c[nH]nn2)c1` [2b]: the “Activity class in the TDO2 test library” value in the series with TDO2 was “inactive”.

With `C[C@H]1NS(=O)(=O)c2ccc(-c3c[nH]c4cc(F)ccc34)cc21` [1b], the IC50 with TDO2 was 27 nM. As to `COc1ccccc1C(=O)CC(=O)c1ccc(C)cc1O` [TD12], the “Inhibition of kynurenine secretion” value in series [1] is 50% ± 20. Turning to `Nc1cccc(-c2c[nH]nn2)c1` [2a], the “Activity class in the TDO2 test library” value with TDO2 was “inactive”.

On to `FC(F)(F)c1cc(-c2c[nH]nn2)ccn1` [2c], for which the “Activity class in the TDO2 test library” value in the series on TDO2 was “inactive”. As to `O=C1c2ccccc2C(=O)c2c1nnn2Cc1cccc(C(=O)N2CCOCC2)c1` [1e], in the series on TDO2, the IC50 is 48 nM. `Nc1nonc1/C(=N/O)Nc1ccc(F)c(Cl)c1` [5L]: the “Inhibition of kynurenine production, in words” value at IDO1 (SKOV3 cells) (SKOV3, at 1 µM) is listed as “completely inhibited”. With `Fc1ccc2c(/C=C\c3cccnc3)c[nH]c2c1` [680C91], the “Effect on kynurenine production, in words” value at IDO1 (SKOV3 cells) (SKOV3) is reported as “barely affected”. For the compound `O=C1Nc2ccccc2/C1=N\Nc1nc2ccccc2s1` [2d], the “Activity class in the TDO2 test library” value in the series with TDO2 is “inactive”.

With `Cc1ccc(C(=O)CC(=O)c2ccccc2OC(C)C)c(O)c1` [TD18], the IC50 at IDO1 (SKOV3 cells) stood at 28.9 µM. Further, the “Inhibition of kynurenine secretion” value in series [1] is recorded as 50% ± 20. On to `CC1=C(CC(=O)c2sccc2Br)C(=O)c2ccccc2C1=O` [TD34], for which the IC50 on IDO1 (SKOV3 cells) is 47.3 µM and ~40 µM; in the series with IDO1/TDO2 (BT549 cells) (BT549 (IDO1/TDO2), 18 h, read-out: IC50, inhibition of kynurenine secretion), 3.42 µM; at TDO2 (A172 cells), 37.7 µM and ~40 µM. The “Fold higher potency in BT549 than in A172 and SKOV3” value with IDO1/TDO2 (BT549 cells) (BT549 versus A172 / SKOV3) was “more than 10 fold”. Also, the “Inhibition of kynurenine production, in words” value in series [1] is on record as “inhibited kynurenine production”. Further, in series [2], the “Toxicity to the BT549 and SKOV3 cell lines” value is on record as “absence of cell toxicity”. With `O=S1(=O)NC(CO)c2cc(-c3c[nH]c4cc(F)ccc34)ccc21` (centres unmarked) [1d], in the series with TDO2, the concentration for half-maximal inhibition (IC50) was 43 nM.

Values taken from publication PMC6930675, “Discovery and Characterisation of Dual Inhibitors of Tryptophan 2,3-Dioxygenase (TDO2) and Indoleamine 2,3-Dioxygenase 1 (IDO1) Using Virtual Screening” (Molecules, 2019).
